We go through twelve compounds from patent US8552220B2, “Therapeutic agent for Alzheimer's disease” (Tokyo Institute of Technology, priority 2008, dated 2013).

In general, melting point refers to the temperature of the solid-liquid transition. On to `O=C(/C=C/c1ccc(O)cc1)CC(=O)/C=C/c1ccccc1-c1cn(Cc2ccccc2)nn1` [CU644, (1E,6E)-1-[2-(1-benzyl-1H-1,2,3-triazol-4-yl)phenyl]-7-(4-hydroxyphenyl)hepta-1,6-diene-3,5-dione], for which the melting point fell in the range of 103 to 109 °C.
Then `O=C(/C=C/c1ccc(O)cc1)CC(=O)/C=C/c1ccccc1-c1cnnn1Cc1ccccc1` [CU645, (1E,6E)-1-[2-(1-benzyl-1H-1,2,3-triazol-5-yl)phenyl]-7-(4-hydroxyphenyl)hepta-1,6-diene-3,5-dione], with 205 to 215 °C; and `CCOC(=O)Cn1cc(-c2ccccc2/C=C/C(=O)CC(=O)/C=C/c2ccc(O)cc2)nn1` [CU646, (1E,6E)-1-[2-(1-ethoxycarbonylmethyl-1H-1,2,3-triazol-4-yl)phenyl]-7-(4-hydroxyphenyl)hepta-1,6-diene-3,5-dione], with 99 to 105 °C.
As for `CCOC(=O)Cn1nncc1-c1ccccc1/C=C/C(=O)CC(=O)/C=C/c1ccc(O)cc1` [CU647, (1E,6E)-1-[2-(1-ethoxycarbonylmethyl-1H-1,2,3-triazol-5-yl)phenyl]-7-(4-hydroxyphenyl)hepta-1,6-diene-3,5-dione], the figure is 169 to 174 °C; as for `COCOc1ccc([N+](=O)[O-])c(/C=C/C(=O)CC(=O)/C=C/c2ccc(O)cc2)c1` [CU649, (1E,6E)-1-(4-hydroxyphenyl)-7-[5-(methoxymethoxy)-2-nitrophenyl]hepta-1,6-diene-3,5-dione], 175 to 180 °C.
Then `[N-]=[N+]=Nc1ccccc1/C=C/C(=O)CC(=O)/C=C/c1ccc(O)cc1` [CU651, (1E,6E)-1-(2-azidophenyl)-7-(4-hydroxyphenyl)hepta-1,6-diene-3,5-dione], with 153 to 161 °C; and `COc1cc(/C=C/C(=O)CC(=O)/C=C/c2ccc(O)cc2)c(Br)c(Br)c1O` [CU652, (1E,6E)-1-(2,3-dibromo-4-hydroxy-5-methoxyphenyl)-7-(4-hydroxyphenyl)hepta-1,6-diene-3,5-dione], with 215 to 218 °C.
Regarding `O=C(/C=C/c1ccc(O)cc1)CC(=O)/C=C/c1ccc(O)cc1Br` [CU671, (1E,6E)-1-(2-bromo-4-hydroxyphenyl)-7-(4-hydroxyphenyl)hepta-1,6-diene-3,5-dione], the melting point lay in the range of 196 to 205 °C.
Then `O=C(/C=C/c1ccc(O)cc1)CC(=O)/C=C/c1ccccc1C=Cc1ccccc1` [CU672, (1E,6E)-1-(4-hydroxyphenyl)-7-(2-styrylphenyl)hepta-1,6-diene-3,5-dione], with 119 to 128 °C; and `O=C(/C=C/c1ccc(O)cc1)CC(=O)/C=C/c1ccc(N2CCCCC2)cc1Br` [CU1090, (1E,6E)-1-[2-bromo-4-(piperidin-1-yl)phenyl]-7-(4-hydroxyphenyl)hepta-1,6-diene-3,5-dione], with 238 to 248 °C; and `O=C(/C=C/c1ccc(O)cc1)CC(=O)/C=C/c1ccc(N2CCC(Cc3ccccc3)CC2)cc1Br` [CU1091, (1E,6E)-1-[4-(4-benzylpiperidin-1-yl)-2-bromophenyl]-7-(4-hydroxyphenyl)hepta-1,6-diene-3,5-dione], with 155 to 161 °C.
Then `O=C(/C=C/c1ccc(O)cc1)CC(=O)/C=C/c1ccc(N2CCN(c3ccccc3)CC2)cc1Br` [CU1095, (1E,6E)-1-[2-bromo-4-(4-phenylpiperazin-1-yl)phenyl]-7-(4-hydroxyphenyl)hepta-1,6-diene-3,5-dione], with 195 to 204 °C.
